Values quoted from earlier work, collected in patent publication US12102628B2, “Composition and methods for the treatment of myopia” (Seinda Pharmaceutical Guangzhou Corporation, priority 2017, dated 2024).
Read-outs that look alike come from different tables or passages of the source.

Experiments:
[1] = ophthalmic use, concentrations per Table 2
[2] = test system: pupil
[3] = test system: myopic children; settings: for Myopia progression: myopic children
[4] = not given; remark: listed apart in the source
[5] = molecular target: M3 receptor (Homo sapiens, UniProt P20309); settings: M3 receptor-selective antagonists
Chain of M3 receptor (P20309 whole entry): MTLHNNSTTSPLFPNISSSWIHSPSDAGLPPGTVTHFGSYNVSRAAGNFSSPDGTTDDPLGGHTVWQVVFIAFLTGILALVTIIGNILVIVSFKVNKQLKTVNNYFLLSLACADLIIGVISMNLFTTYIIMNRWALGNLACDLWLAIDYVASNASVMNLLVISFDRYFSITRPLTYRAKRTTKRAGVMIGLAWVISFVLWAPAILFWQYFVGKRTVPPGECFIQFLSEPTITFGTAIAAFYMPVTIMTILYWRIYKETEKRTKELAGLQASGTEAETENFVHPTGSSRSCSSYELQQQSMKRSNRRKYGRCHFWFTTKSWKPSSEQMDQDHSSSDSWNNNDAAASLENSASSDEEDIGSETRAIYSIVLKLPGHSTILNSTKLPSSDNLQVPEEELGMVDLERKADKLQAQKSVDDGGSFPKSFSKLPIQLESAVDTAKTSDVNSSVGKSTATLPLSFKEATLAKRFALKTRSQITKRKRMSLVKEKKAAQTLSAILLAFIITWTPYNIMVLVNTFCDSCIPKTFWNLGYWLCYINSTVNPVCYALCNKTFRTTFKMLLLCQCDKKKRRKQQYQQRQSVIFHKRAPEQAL

CN1[C@@H]2CC[C@H]1C[C@@H](OC(=O)C(CO)c1ccccc1)C2 (stereo partly drawn) [Atropine, atropine]
Acting Duration [1]: 7 to 14 days | Pupil dilation diameter ([2]; 0.05% atropine solution, control group 2.93 mm): 5.52 mm | Photophobia ratio ([2]; low concentration atropine group): about 66.67% | Effect on myopia progression (in words) ([3]; 0.5% atropine solution): effectively slow the myopia progression | Myopia progression ([3]; atropine concentration 0.1%): 0.47 diopter/yr | Myopia progression ([3]; atropine concentration 0.25%): 0.45 diopter/yr | Myopia progression ([3]; atropine concentration 0.5%): 0.04 diopter/yr

CN(C)CCOC(=O)C(c1ccccc1)C1(O)CCCC1 (stereo not drawn) [Cyclopentolate]
Acting Duration [1]: 4 days

NC(=O)C(c1ccccc1)(c1ccccc1)[C@@H]1CCN(CCc2ccc3c(c2)CCO3)C1 [Darifenacin]
logP: 4.5 | Aqueous Solubility [4]: 6030 µg/mL

CN1CCN(CC(=O)N2c3ccccc3C(=O)Nc3cccnc32)CC1 [Pirenzepine]
Acting Duration [1]: <1 days

c1ccc(C(O[C@@H]2CCCN(CCc3ccc4c(c3)OCO4)C2)c2ccccc2)cc1 [Zamifenacin]
Affinity (pKi) [5]: 9.3 | logP: 4.4 | Aqueous Solubility [4]: 20 µg/mL

Tiotropium
Aqueous Solubility [4]: 25000 µg/mL
